Among the data in publication PMC9621233, “4-Cyanamidobenzenesulfonamide derivatives: a novel class of human and bacterial carbonic anhydrase inhibitors” (Journal of Enzyme Inhibition and Medicinal Chemistry, 2022) are Ki values, retold here.

Common to all, as to test: stopped-flow CO2 hydration assay, phenol red
The target in one experiment is T1, hCA I (Homo sapiens, UniProt P00915).
T1 construct: gene CA1; recombinant, obtained in-house; cytosolic alpha-CA
The class given is biochemical. The note with it: read-out: KI (nM)^a / hCA I (α-CA). The text has this:
stopped-flow CO2 hydration assay, phenol red on hCA I

A further experiment deals with T2, MscCA.
T2 construct: recombinant beta-CA, obtained in-house; earlier published as SauCA
The class given is biochemical, Mammaliicoccus sciuri. The following applies: […] TRIS pH […] Na2SO4, […] h preincubation, room temperature; read-out: KI (nM)^a / MscCA (β-CA).

The target of another experiment is T3, StCA2.
T3 construct: recombinant beta-CA, obtained in-house
The class given is biochemical, Salmonella enterica subsp. enterica serovar Typhimurium. The note with it: […] TRIS pH […] Na2SO4, […] h preincubation, room temperature; read-out: KI (nM)^a / StCA2 (β-CA).

Another experiment addresses T4, hCA VII (Homo sapiens, UniProt P43166).
T4 construct: gene CA7; recombinant, obtained in-house; cytosolic alpha-CA
The class given is biochemical. The following applies: read-out: KI (nM)^a / hCA VII (α-CA). The source says: stopped-flow CO2 hydration assay, phenol red on hCA VII

Another experiment deals with T5, StCA1.
T5 construct: recombinant beta-CA, obtained in-house
The class given is biochemical, Salmonella enterica subsp. enterica serovar Typhimurium. The following applies: […] TRIS pH […] Na2SO4, […] h preincubation, room temperature; read-out: KI (nM)^a / StCA1 (β-CA).

The target in another experiment is T6, hCA XIII (Homo sapiens, UniProt Q8N1Q1).
T6 construct: gene CA13; recombinant, obtained in-house; cytosolic alpha-CA
T6 sequence (Q8N1Q1 whole entry): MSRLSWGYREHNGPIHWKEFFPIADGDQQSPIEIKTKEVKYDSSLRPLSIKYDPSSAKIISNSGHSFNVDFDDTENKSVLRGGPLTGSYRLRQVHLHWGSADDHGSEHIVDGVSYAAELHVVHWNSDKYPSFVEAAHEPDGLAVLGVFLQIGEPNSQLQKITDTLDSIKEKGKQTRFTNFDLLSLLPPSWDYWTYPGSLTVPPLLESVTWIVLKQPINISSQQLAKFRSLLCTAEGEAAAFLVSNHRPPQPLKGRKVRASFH
The class given is biochemical. The note with it: read-out: KI (nM)^a / hCA XIII (α-CA). The text has this:
stopped-flow CO2 hydration assay, phenol red on hCA XIII

The next experiment deals with T7, hCA II (Homo sapiens, UniProt P00918).
T7 construct: gene CA2; recombinant, obtained in-house; cytosolic alpha-CA
The class given is biochemical. The following applies: read-out: KI (nM)^a / hCA II (α-CA). The text has this:
stopped-flow CO2 hydration assay, phenol red on hCA II

T4 sequence (P43166 whole entry): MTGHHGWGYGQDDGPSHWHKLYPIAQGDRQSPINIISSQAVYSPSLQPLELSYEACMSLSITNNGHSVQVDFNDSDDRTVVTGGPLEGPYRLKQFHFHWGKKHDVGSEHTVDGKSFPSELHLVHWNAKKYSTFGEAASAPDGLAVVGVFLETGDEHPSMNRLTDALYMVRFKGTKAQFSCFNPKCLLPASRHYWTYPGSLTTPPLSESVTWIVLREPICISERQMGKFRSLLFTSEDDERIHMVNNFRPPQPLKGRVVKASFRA
T1 sequence (P00915 2-261): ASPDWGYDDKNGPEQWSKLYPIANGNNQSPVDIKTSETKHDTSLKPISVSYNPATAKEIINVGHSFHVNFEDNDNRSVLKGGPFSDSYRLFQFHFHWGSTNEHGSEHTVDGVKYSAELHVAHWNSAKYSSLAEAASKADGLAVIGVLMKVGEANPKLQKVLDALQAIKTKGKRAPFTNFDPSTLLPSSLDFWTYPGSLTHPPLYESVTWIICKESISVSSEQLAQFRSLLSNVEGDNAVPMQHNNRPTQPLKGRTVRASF

Regarding `CN(C#N)c1ccc(S(N)(=O)=O)cc1` [compound 8, 4-(N-Methylcyanamido)benzenesulfonamide], the Ki at hCA I was determined as 557 nM; on MscCA, 1580 nM; on StCA2, 200 nM; on hCA VII, 13.8 nM; at StCA1, 52.7 nM; at hCA XIII, 117 nM. Moreover, the Ki at hCA II came out at 29.2 nM.

With `CCN(C#N)c1ccc(S(N)(=O)=O)cc1` [compound 9, 4-(N-Ethylcyanamido)benzenesulfonamide], the Ki on hCA I is 88.6 nM; on MscCA, 3150 nM; at StCA2, 367 nM; at hCA VII, 17.9 nM; on StCA1 it was 61.5 nM; on hCA XIII it was 476 nM. Besides, at hCA II, the Ki worked out at 45.3 nM.

For `CCCCN(C#N)c1ccc(S(N)(=O)=O)cc1` [compound 10, 4-(N-Butylcyanamido)benzenesulfonamide], the Ki at hCA I is 16.4 nM; at MscCA, 4480 nM; on StCA2, 426 nM; at hCA VII, 1.3 nM; at StCA1, 62.7 nM; on hCA XIII, 70.7 nM. Besides, the Ki on hCA II is 32 nM.

For the compound `CCCCCCN(C#N)c1ccc(S(N)(=O)=O)cc1` [compound 11, 4-(N-Hexylcyanamido)benzenesulfonamide], the Ki amounted to 9.3 nM at hCA I; 6880 nM at MscCA; 718 nM on StCA2; 1.5 nM at hCA VII; 54.6 nM at StCA1; 83 nM on hCA XIII. Moreover, at hCA II, the Ki is 5.3 nM.

For the compound `CCCCCCCN(C#N)c1ccc(S(N)(=O)=O)cc1` [compound 12, 4-(N-Heptylcyanamido)benzenesulfonamide], the Ki at hCA I was 38.2 nM; on MscCA it was 7190 nM; on StCA2, 676 nM; at hCA VII it was 1.7 nM; at StCA1 it was 58.8 nM; at hCA XIII it was 31.5 nM. Further, the Ki on hCA II is 7.1 nM.

For `CCCCCCCCCCCCCCCCCCN(C#N)c1ccc(S(N)(=O)=O)cc1` [compound 13, 4-(N-Octadecylcyanamido)benzenesulfonamide], the Ki was 17.3 nM at hCA I; 9170 nM at MscCA; 791 nM on StCA2; 2.2 nM on hCA VII; 66.1 nM at StCA1; 155 nM at hCA XIII. For the same compound, on hCA II, the Ki is 9.5 nM.

For `N#CN(c1ccc(S(N)(=O)=O)cc1)C1CCCCC1` [compound 14, 4-(N-Cyclohexylcyanamido)benzenesulfonamide], the Ki at hCA I came to 50.6 nM; on MscCA, 5360 nM; on StCA2, 579 nM; on hCA VII, 1.9 nM; on StCA1, 69.5 nM; on hCA XIII, 83.8 nM. Besides, on hCA II, the Ki came out at 82.3 nM.

On to `C=CCN(C#N)c1ccc(S(N)(=O)=O)cc1` [compound 15, 4-(N-Allylcyanamido)benzenesulfonamide], for which the Ki at hCA I was determined as 74.7 nM; on MscCA, 5100 nM; on StCA2, 645 nM; on hCA VII it was 2.3 nM; at StCA1 it was 51.2 nM; at hCA XIII it was 97.7 nM. Besides, the Ki on hCA II turned out to be 54.1 nM.

Consider `N#CN(Cc1ccccc1)c1ccc(S(N)(=O)=O)cc1` [compound 16, 4-(N-Benzylcyanamido)benzenesulfonamide], for which the Ki was 67.3 nM on hCA I; 9360 nM on MscCA; 692 nM on StCA2; 2 nM at hCA VII; 50.7 nM at StCA1; 67.8 nM at hCA XIII. In addition, the Ki at hCA II was found to be 61.4 nM.

As for `N#CN(Cc1ccc(Br)cc1)c1ccc(S(N)(=O)=O)cc1` [compound 17, 4-(N-(4-Bromobenzyl)cyanamido)benzenesulfonamide], the Ki on hCA I is 389 nM; at MscCA, 9590 nM; on StCA2, 750 nM; on hCA VII it was 2.4 nM; at StCA1, 73.1 nM; at hCA XIII, 53.1 nM. Also, the Ki at hCA II stood at 93.3 nM.
